# Data published in patent US20120252853A1, “Positive allosteric modulators of nicotinic acetylcholine receptor” (H. Lundbeck A/S, priority 2011, published 2012).
# Biological target: T1, human KCNQ2 (Homo sapiens, UniProt O43526)
# T1 construct: expressed in transfected cells
# Assay: 86Rb flux in KCNQ2 expressing cells
# Type: cell-based
# Details: KCNQ2 opening; 86Rb efflux, CHO-K1 cells stably transfected with human KCNQ2
# Description: Chinese hamster ovary cells (CHO-K1) were stably transfected with human KCNQ2 inserted into the pCl-neo vector (Promega). Cells were plated at 2×10^5 cells/ml in 96-well plates in 100 μl media (MEM Alpha media, 10% FBS, 1% P/S, 1% L-Glu, and 1 mg/ml G418). At the time of plating the cells were furthermore loaded with 1 μCi/ml 86Rb over-night. On the subsequent day, the cells were washed with 3×50 μl assay buffer (HBSS+10 mM HEPES, pH 7.4) and incubated in 50 μl buffer with retigabine for 30 minutes at 37° C. Following this preincubation, the cell membrane was depolarized for 30 minutes at 37° C. with 15 mM KCl (final concentration) in assay buffer supplemented with the appropriate amount of compound to maintain drug concentration. The supernatant was removed and placed in pony-vials with 0.5 ml scintillation liquid and counted. The dose-dependent effect of the investigated compounds on the efflux of 86Rb through the hKCNQ2 channels were calculated according to the four parameter logistic equation: Y=Bottom+(Top-Bottom)/(1+10̂((LogEC50-X)*HillSlope)), where X is the logarithm of concentration, Y is the response, and HillSlope is the hill coefficient.
# A representative selection of compounds of the invention were tested in the assay in addition to 6 comparative examples wherein 0 has been substituted with a 6-membered ring comprising up to two N atoms. Comparative 1-4 has been disclosed in WO 2009/127678 or WO 2009/127679 and comparative 5-6 are close analogues.
row,EC50,Compound
1,> 50 µM,"O=C(NCc1ccc2[nH]c(C(F)(F)F)cc2c1)c1ccno1 [Compound 31, N-[[2-(trifluoromethyl)-1H-indol-5-yl]methyl]isoxazole-5-carboxamide]"
2,> 50 µM,"O=C(NCc1ccc2[nH]c(C(F)(F)F)cc2c1)c1ncc(C(F)(F)F)cn1 [Compound C1, 5-Trifluoromethyl-pyrimidine-2-carboxylic acid (2-trifluoromethyl-1H-indol-5-ylmethyl)amide, reference compound]"
3,> 50 µM,"O=C(NCc1ccc2[nH]c(C(F)(F)F)cc2c1)c1ccc(-c2ccccc2)nc1 [Compound C2, 6-Phenyl-N-(2-trifluoromethyl-1H-indol-5-ylmethyl)-nicotinamide, reference compound]"
4,17 µM,"O=C(NCc1ccc2[nH]c(C(F)(F)F)cc2c1)c1ccc(C(F)(F)F)nc1 [Compound C3, 6-Trifluoromethyl-N-(2-trifluoromethyl-1H-indol-5-ylmethyl)-nicotinamide, reference compound]"

# Same assay, conditions: KCNQ2 opening; Max effect determined in % of the effect of 30 mM KCl
row,Emax,Compound
1,4.8%,"O=C(NCc1ccc2[nH]c(C(F)(F)F)cc2c1)c1ccno1 [Compound 31, N-[[2-(trifluoromethyl)-1H-indol-5-yl]methyl]isoxazole-5-carboxamide]"
2,34%,"O=C(NCc1ccc2[nH]c(C(F)(F)F)cc2c1)c1ncc(C(F)(F)F)cn1 [Compound C1, 5-Trifluoromethyl-pyrimidine-2-carboxylic acid (2-trifluoromethyl-1H-indol-5-ylmethyl)amide, reference compound]"
3,31%,"O=C(NCc1ccc2[nH]c(C(F)(F)F)cc2c1)c1ccc(-c2ccccc2)nc1 [Compound C2, 6-Phenyl-N-(2-trifluoromethyl-1H-indol-5-ylmethyl)-nicotinamide, reference compound]"
4,46%,"O=C(NCc1ccc2[nH]c(C(F)(F)F)cc2c1)c1ccc(C(F)(F)F)nc1 [Compound C3, 6-Trifluoromethyl-N-(2-trifluoromethyl-1H-indol-5-ylmethyl)-nicotinamide, reference compound]"

# Biological target: human α7 receptor (Homo sapiens, UniProt P36544)
# Assay: α7 NNR flux assay (FDSS Ca assay)
# Type: cell-based
# Details: positive allosteric modulation; rat GH4C1 cell line stably expressing human α7; acetylcholine 20 μM; % modulation relative to PNU-120596 set to 100%
# Description: In this version of the assay, the human α7 receptor is stably expressed in the rat GH4C1 cell line. The assay was used to identify positive allosteric modulators (PAMs) of the α7 receptor. Activation of the channel was measured by loading cells with the calcium-sensitive fluorescent dye Calcium-4 (Assay kit from Molecular Devices), and then measuring real-time changes in fluorescence upon treatment with test compounds.
# The cell line ChanClone GH4C1-nAChRalpha7 from Genionics was seeded from frozen stock in 384-well plates in culture media 2-3 days before experiment to form an approximately 80% confluent layer on the day of experiment.
# The cell culture were split into “22.5 cm×22.5 cm”-plates with approximately 100×10^3 cells/cm^2. After four days incubation in a humidified incubator at 37° C. and 5% CO2, it had grown to an 80-90% confluent layer, and the cells were harvested.
# Two or three days before the experiment the cells were seeded in 384 well plates from Greiner bio-one (781946, CELLCOAT, Poly-D-Lysine, black, μClear).
# The cells were seeded in 384 well plates with 30 μL/well (30000 cells/well) while stirring the cell suspension or otherwise preventing the cells from precipitating. The plates were incubated at room temperature for 30-45 minutes. The plates were placed in incubator for two days (37° C. and 5% CO2).
# The loading buffer was 5% v/v Calcium-4 Kit and 2.5 mM Probenecid in assay buffer.
# Culture media were removed from the cell plates and 20 μL loading buffer was added in each well. The cell plates were placed in trays and incubated 90 minutes in the incubator (37° C.). Thereafter the plates were incubated 30 minutes at room temperature, still protected from light. Now the cell plates were ready to run in the Functional Drug Screening System (FDSS) The assay buffer was HBSS with 20 mM HEPES, pH 7.4 and 3 mM CaCl2.
# 200 nL 10 mM compound solution in DMSO was diluted in 50 μL assay buffer. The final test concentrations in the cell plates were 20-10-5-2.5-1.25-0.625-0.312-0.156-0.078-0.039 μM. Assay buffer and 3 μM PNU-120596 were used for control:
# The agonist acetylcholine was added to a final concentration of 20 μM (˜EC100). In the FDSS7000 the Ex480-Em540 was measured with 1 second intervals. The baseline was made of 5 frames before addition of test compounds, and 95 frames more were made before addition of acetylcholine. The measurement stopped 30 frames after the 2nd addition. Raw data for each well were collected as “the maximum fluorescence count” in the interval 100-131 seconds and as “the average fluorescence count” in the interval 96-100 seconds. The positive allosteric modulation in the 2nd addition was the enhancement of agonist response with test compound compared to agonist alone.
# Results were calculated as % modulation of test compound compared to the reference PNU-120596 set to 100%.
# Sequence of human α7 receptor (P36544 23-502): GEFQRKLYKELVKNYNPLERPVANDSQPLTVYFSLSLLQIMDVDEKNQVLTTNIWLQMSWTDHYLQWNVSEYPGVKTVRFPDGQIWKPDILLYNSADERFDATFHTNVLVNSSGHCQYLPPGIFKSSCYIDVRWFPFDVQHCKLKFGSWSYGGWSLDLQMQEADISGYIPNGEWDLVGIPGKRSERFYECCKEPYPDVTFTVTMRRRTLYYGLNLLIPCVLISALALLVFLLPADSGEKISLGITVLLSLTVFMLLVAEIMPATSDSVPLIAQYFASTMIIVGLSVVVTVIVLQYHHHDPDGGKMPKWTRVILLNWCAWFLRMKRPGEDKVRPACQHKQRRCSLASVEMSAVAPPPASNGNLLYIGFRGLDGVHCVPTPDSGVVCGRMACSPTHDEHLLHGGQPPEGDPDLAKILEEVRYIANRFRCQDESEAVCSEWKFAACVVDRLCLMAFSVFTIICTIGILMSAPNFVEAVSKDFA
row,EC50,Compound
1,9.5 µM,"Cc1cc2cc(CNC(=O)c3ccn(CCF)n3)ccc2[nH]1 [Compound 94, 1-(2-fluoroethyl)-N-[(2-methyl-1H-indol-5-yl)methyl]pyrazole-3-carboxamide]"
2,3.5 µM,"COCc1cc(C(=O)NCc2ccc3[nH]c(C)cc3c2)on1 [Compound 98, 3-(methoxymethyl)-N-[(2-methyl-1H-indol-5-yl)methyl]isoxazole-5-carboxamide]"
3,8.5 µM,"COCCn1cc(C(=O)NCc2ccc3[nH]c(C)cc3c2)cn1 [Compound 100, 1-(2-methoxyethyl)-N-[(2-methyl-1H-indol-5-yl)methyl]pyrazole-4-carboxamide]"
4,2.9 µM,"Cc1[nH]c2ccc(CNC(=O)c3cnn(CC(F)(F)F)c3)cc2c1C [Compound 101, N-[(2,3-dimethyl-1H-indol-5-yl)methyl]-1-(2,2,2-trifluoroethyl)pyrazole-4-carboxamide]"
5,1 µM,"Cc1cc(C(=O)N[C@H](C)c2cc3cc(C)[nH]c3cc2F)on1 [Compound 102, N-[(1R)-1-(6-fluoro-2-methyl-1H-indol-5-yl)ethyl]-3-methyl-isoxazole-5-carboxamide]"
6,0.33 µM,Cc1cc(C(=O)N[C@H](C)c2cc3cc[nH]c3c(C)c2F)on1 [Compound 103]
7,4.2 µM,"Cc1cc(C(=O)NCc2cc3cc(C)[nH]c3cc2F)on1 [Compound 104, N-[(6-fluoro-2-methyl-1H-indol-5-yl)methyl]-3-methyl-isoxazole-5-carboxamide]"
8,1.7 µM,"Cc1cc2cc(CNC(=O)c3cc(CCF)no3)ccc2[nH]1 [Compound 106, 3-(2-fluoroethyl)-N-[(2-methyl-1H-indol-5-yl)methyl]isoxazole-5-carboxamide]"
9,0.56 µM,"Cc1cc(C(=O)NCc2ccc3[nH]c(C)cc3c2)sn1 [Compound 107, 3-methyl-N-[(2-methyl-1H-indol-5-yl)methyl]isothiazole-5-carboxamide]"
10,7.7 µM,"Cc1cc(C(=O)NCc2ccc3[nH]c(CC(F)(F)F)cc3c2)on1 [Compound 108, 3-methyl-N-[[2-(2,2,2-trifluoroethyl)-1H-indol-5-yl]methyl]isoxazole-5-carboxamide]"
11,6.5 µM,"Cc1cc(C(=O)NCc2ccc3[nH]c(C)cc3c2F)on1 [Compound 110, N-[(4-fluoro-2-methyl-1H-indol-5-yl)methyl]-3-methyl-isoxazole-5-carboxamide]"
12,1.3 µM,"Cc1cc(C(=O)N[C@H](C)c2cc(F)c3[nH]c(C)cc3c2)on1 [Compound 111, N-[(1R)-1-(7-fluoro-2-methyl-1H-indol-5-yl)ethyl]-3-methyl-isoxazole-5-carboxamide]"
13,5 µM,"COCc1cc(C(=O)NCc2ccc3[nH]c(C(F)(F)F)cc3c2)on1 [Compound 114, 3-(methoxymethyl)-N-[[2-(trifluoromethyl)-1H-indol-5-yl]methyl]isoxazole-5-carboxamide]"
14,4.3 µM,"O=C(NCc1ccc2[nH]ccc2c1)c1cc(CCF)no1 [Compound 115, 3-(2-fluoroethyl)-N-(1H-indol-5-ylmethyl)isoxazole-5-carboxamide]"
15,7 µM,"Cc1cc2cc(CNC(=O)c3cnn4c3CCC4)ccc2[nH]1 [Compound 117, N-[(2-methyl-1H-indol-5-yl)methyl]-5,6-dihydro-4H-pyrrolo[1,2-b]pyrazole-3-carboxamide]"
16,4.8 µM,"Cc1cc(C(=O)N[C@H](C)c2ccc3[nH]c(C#N)cc3c2)on1 [Compound 121, N-[(1R)-1-(2-cyano-1H-indol-5-yl)ethyl]-3-methyl-isoxazole-5-carboxamide]"

# Second part, the compound before the results:
row,Compound,EC50
1,"COCCn1ccc(C(=O)NCc2ccc3[nH]c(C)cc3c2)n1 [Compound 95, 1-(2-methoxyethyl)-N-[(2-methyl-1H-indol-5-yl)methyl]pyrazole-3-carboxamide]",7.7 µM
2,"Cc1cc2cc(CNC(=O)c3cnn(CCF)c3)ccc2[nH]1 [Compound 99, 1-(2-fluoroethyl)-N-[(2-methyl-1H-indol-5-yl)methyl]pyrazole-4-carboxamide]",6.4 µM
3,"Cc1cc(C(=O)NCc2cc3cc[nH]c3c(C)c2F)on1 [Compound 105, N-[(6-fluoro-7-methyl-1H-indol-5-yl)methyl]-3-methyl-isoxazole-5-carboxamide]",2.9 µM
4,"Cc1cc(C(=O)NCc2cc(F)c3[nH]c(C)cc3c2)on1 [Compound 109, N-[(7-fluoro-2-methyl-1H-indol-5-yl)methyl]-3-methyl-isoxazole-5-carboxamide]",3.1 µM
5,"COCc1cc(C(=O)N[C@H](C)c2ccc3[nH]c(C)cc3c2)on1 [Compound 112, 3-(methoxymethyl)-N-[(1R)-1-(2-methyl-1H-indol-5-yl)ethyl]isoxazole-5-carboxamide]",1.1 µM
6,"Cc1cc2cc([C@@H](C)NC(=O)c3cc(CCF)no3)ccc2[nH]1 [Compound 113, 3-(2-fluoroethyl)-N-[(1R)-1-(2-methyl-1H-indol-5-yl)ethyl]isoxazole-5-carboxamide]",0.79 µM
7,"Cc1cc2cc(CNC(=O)c3ncc(C)o3)ccc2[nH]1 [Compound 116, 5-methyl-N-[(2-methyl-1H-indol-5-yl)methyl]oxazole-2-carboxamide]",9.9 µM
8,"Cc1cc2cc(CNC(=O)c3cc4n(n3)CCC4)ccc2[nH]1 [Compound 118, N-[(2-methyl-1H-indol-5-yl)methyl]-5,5-dihydro-4H-pyrrolo[1,2-b]pyrazole-2-carboxamide]",7.2 µM
9,"Cc1noc(C(=O)NCc2ccc3[nH]c(C)cc3c2)n1 [Compound 119, 3-methyl-N-[(2-methyl-1H-indol-5-yl)methyl]-1,2,4-oxadiazole-5-carboxamide]",7.1 µM
10,"Cc1cc(C(=O)NCc2ccc3[nH]c(C#N)cc3c2)sn1 [Compound 120, N-[(2-cyano-1H-indol-5-yl)-methyl]-3-methyl-isothiazole-5-carboxamide]",3.3 µM
